Source: US7449480B2, “Small molecule inhibitors of HER2 expression” (Baylor College of Medicine, priority 2002, dated 2008)
“Also recorded” adds a separate entry of the source.

Legend:
[1] = tested on: SK-BR3 breast cancer cells; assay: Cell viability assay (WST-1) in SK-BR3 breast cancer cells; type: cell-based, human
Description: SK-BR3 breast cancer cells were plated on 96-well plates at density of 5×10^3 cells/well and maintained for 24 hrs. The cells were then incubated with varied concentrations of each compound for 48 hrs, followed by addition of Premix WST-1 Solution (Takara). Cell viability was estimated by measuring absorbance at 450 nm after 1 hr with a SPECTRAmax microplatereader.

ESX-Sur-2 interaction = target: T1, ESX-Sur-2 interaction (Homo sapiens, UniProt Q9ULK4); assay: Inhibition of the ESX-Sur-2 interaction in vitro (fluorescence of FITC-ESX129-145 with GST-Sur2352-625); type: binding
T1 construct: made in house
T1 sequence (Q9ULK4 352-625): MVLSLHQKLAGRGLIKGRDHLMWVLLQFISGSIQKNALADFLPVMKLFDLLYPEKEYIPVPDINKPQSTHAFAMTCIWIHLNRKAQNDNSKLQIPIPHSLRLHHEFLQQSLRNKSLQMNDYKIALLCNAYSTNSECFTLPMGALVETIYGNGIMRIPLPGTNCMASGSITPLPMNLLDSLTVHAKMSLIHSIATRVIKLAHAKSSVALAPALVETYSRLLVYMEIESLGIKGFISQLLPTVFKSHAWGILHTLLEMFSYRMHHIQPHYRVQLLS
Description: To monitor the ESX-DRIP130 interaction, we labeled ESX129-145 with fluorescein isothiocyanate (FITC; Pierce) at the Lys144 position and measured its fluorescence spectra upon adding the glutatathione-S′-transferase (GST) fusion of DRIP130352-625. ESX129-145 was synthesized by standard Fmoc chemistry (the NH2 terminus was capped by an acetyl group during the synthesis) and purified by HPLC. The peptide was then coupled with FITC at the Lys144 position in a conjugation buffer (100 mM carbonate-bicarbonate buffer, pH 9) in dark and purified by NAP-5 desalting column (Amersham). The labeled peptide was quantified by UV and visible absorbance.
GST-Sur-2352-625 was expressed and purified. Varied concentrations of the fusion protein were added to FITC-ESX129-145 (10 nM) in phosphate buffered saline containing 2% (v/v) ethanol, and the fluorescence spectra of FITC-ESX129-145 were measured by an ABI LS-50B Fluorescence Spectrometer (Ex: 490 nm). The dissociation constant of the interaction was estimated to be 12 μM through the emission perturbation at 522 nm.
To examine the effects of adamanolol on the interaction in vitro, the ethanol component of the binding buffer was replaced with an ethanolic solution of adamanolol. The fractions of FITC-ESX129-145 (10 nM) bound to 50 μM of GST-Sur-2352-625 were estimated by measuring fluorescence emission at 522 nm. ESX129-145 and pindolol were used as positive and negative controls, respectively.
In another series of derivatives (the R3 substituents in Table 1), the adamantane group of adamanolol was substituted (11a-d). […] The binding fractions were calculated on the basis of fluorescence spectra of FITC-ESX129-145 (152 nM) in presence of GST-Sur2352-625 (212 nM) and varied concentrations of each adamanolol derivative.

Sur-2 (GST-Sur2352-625) = target: T2, Sur-2 (GST-Sur2352-625) (Homo sapiens, UniProt Q9ULK4); assay: Fluorescence perturbation of fluorescein conjugate 9 by GST-Sur2352-625; type: binding; details: measured with fluorescein conjugate 9, emission at 522 nm
T2 construct: made in house
T2 sequence (Q9ULK4 352-625): T1 sequence (Q9ULK4 352-625)
Description: (§1) HeLa cell nuclear extracts were prepared as described47 and incubated with a biotin conjugate of wrenchnolol (8) (100 μM) at 4° C. for 24 hrs. The samples were incubated with Neutravidin affinity resin (Pierce) at 4° C. for 2 hrs and extensively washed with PBS buffer containing 0.5% Nonidet P-40. The bound proteins were then separated by SDS/PAGE and analyzed by western blots with an antibody against human Sur-2 or by silver-staining. A=Ao+0.5.e([9]o+(([9]o+[P]oKd)2−4[9]o[P]o)0.5)
Where A and Ao are the values of fluorescence intensity of 9 in the presence or absence of GST-Sur2352-625, respectively, and .e is the differential fluorescence intensity of 1 μM of 9 in the presence of an infinite concentration of protein and in its absence. [9]o and [P]o are the total concentrations of 9 and protein added, respectively.
The fluorescein conjugate 9 also enabled evaluation of the Kd value of the interaction between wrenchnolol and Sur-2 in vitro. Shown in FIG. 22C are relative emission intensities of 9 at 522 nm (excitation: 490 nm) in the presence of varied concentrations of GST-Sur2352-625. When a GST fusion of Sur-2 protein (GST-Sur2352-625) was added to a solution of conjugate 9, the fluorescence intensity of 9 at 522 nm was decreased ([…]).

[2] = Solubility in neutral aqueous solution; type: physicochemical; details: amino group of the handle protonated
Description: When the amino group of the handle was protonated, wrenchnolol (7b) and its aminopropyl version (7a) became soluble up to ˜1 mM in neutral aqueous solution. The high water solubility enabled NMR analysis of these molecules in a buffered aqueous solution, and their proton signals were completely assigned through a combination of NOESY, DQF-COSY, and HOHAHA data sets (Table S1).

ESX activation domain = assay: Transcription reporter gene assay (GAL4 fusion, SEAP), ESX activation domain; type: cell-based, human; details: HEK293 cells, 20 μM, 10-hr incubation
Description: (§2) Mammalian expression vectors each encoding the activation domain of ESX, VP16, or NFκBp65 fused with the GAL4 DNA-binding domain were used. Each expression construct was co-transfected to HEK293Tag human kidney cells together with a reporter plasmid in which the production of secreted alkaline phosphatase (SEAP) is under control of an IL-2 promoter carrying five GAL4 binding sites. After a 24 hour incubation in the presence or absence of adamanolol, an aliquot of the culture was assayed for SEAP activity. The total amounts of transfected DNA were normalized.
(§3) mammalian expression vectors, each encoding the activation domain of ESX, VP16, or NF-κB p65 fused with the GAL4 DNA-binding domain (amino acids 1-94), were used. Each expression construct was co-transfected to HEK293Tag human kidney cells together with a reporter plasmid in which the production of secreted alkaline phosphatase (SEAP) is under control of an IL2 promoter carrying five GAL4 binding sites. After 10-hr incubation with wrenchnolol (20 μM), an aliquot of the culture was assayed for SEAP activity.

VP16 activation domain = assay: Transcription reporter gene assay (GAL4 fusion, SEAP), VP16 activation domain; type: cell-based; details: HEK293 cells, 20 μM, 10-hr incubation
Description: as §2, §3

[3] = tested on: NF-κB p65 activation domain; assay: Transcription reporter gene assay (GAL4 fusion, SEAP), NF-κB p65 activation domain; type: cell-based, human; details: HEK293 cells, 20 μM, 10-hr incubation
Description: as §3

Her2 = Her2 protein expression by western blot of cell lysates; type: cell-based, human; details: SK-BR3 cells, 7 μM, 24 hrs; alpha-tubulin not reduced
Excerpt: Sur-2 is a human homolog of […] elegans Sur-2, a protein of unknown function whose mutations suppress the phenotype of an activated ras mutation (Singh et al., 1995), and it has been linked to the transcription-activating function of the adenovirus E1A protein and the Elk-1 transcription factor. […] To test this, we designed a cell-permeable peptide that binds Sur-2 (referred to as TAT-ESX129-145). The design takes advantage of the binding affinity of ESX129-145 and the cell internalization property of the 11-aa peptide derived from the HIV TAT protein. We first examined whether TAT ESX129-145 reduces endogenous expression of the Her2 gene in three Her2-overexpressing breast cancer cell lines, SK-BR-3, MDA-MB-453, and […] (FIG. 4). Cells were incubated in the presence or absence of TAT-ESX129-145, and the protein levels of Her2 were examined by Western blot analyses of normalized amounts of cell lysates.
Her2-overexpressing SK-BR3 cells were treated by 7.3 μM of adamanolol for 24 hrs, and whole cell lysates were analyzed by western blots. […]
SK-BR3 cells were treated by 7 μM of wrenchnolol for 24 hrs, and whole cell lysates were analyzed by western blots. […]

Sur-2 = target: T3, Sur-2 (Homo sapiens, UniProt Q9ULK4); assay: Sur-2 interaction of biotin conjugate in HeLa cell nuclear extracts (Neutravidin affinity, western blot); type: binding; details: 100 μM, 4° C., 24 hrs
T3 construct: HeLa cell nuclear extracts were prepared as described47 and incubated with a biotin conjugate of wrenchnolol (8); endogenous in cells; host or cells: HeLa cell nuclear extracts
T3 sequence (Q9ULK4 1-1368): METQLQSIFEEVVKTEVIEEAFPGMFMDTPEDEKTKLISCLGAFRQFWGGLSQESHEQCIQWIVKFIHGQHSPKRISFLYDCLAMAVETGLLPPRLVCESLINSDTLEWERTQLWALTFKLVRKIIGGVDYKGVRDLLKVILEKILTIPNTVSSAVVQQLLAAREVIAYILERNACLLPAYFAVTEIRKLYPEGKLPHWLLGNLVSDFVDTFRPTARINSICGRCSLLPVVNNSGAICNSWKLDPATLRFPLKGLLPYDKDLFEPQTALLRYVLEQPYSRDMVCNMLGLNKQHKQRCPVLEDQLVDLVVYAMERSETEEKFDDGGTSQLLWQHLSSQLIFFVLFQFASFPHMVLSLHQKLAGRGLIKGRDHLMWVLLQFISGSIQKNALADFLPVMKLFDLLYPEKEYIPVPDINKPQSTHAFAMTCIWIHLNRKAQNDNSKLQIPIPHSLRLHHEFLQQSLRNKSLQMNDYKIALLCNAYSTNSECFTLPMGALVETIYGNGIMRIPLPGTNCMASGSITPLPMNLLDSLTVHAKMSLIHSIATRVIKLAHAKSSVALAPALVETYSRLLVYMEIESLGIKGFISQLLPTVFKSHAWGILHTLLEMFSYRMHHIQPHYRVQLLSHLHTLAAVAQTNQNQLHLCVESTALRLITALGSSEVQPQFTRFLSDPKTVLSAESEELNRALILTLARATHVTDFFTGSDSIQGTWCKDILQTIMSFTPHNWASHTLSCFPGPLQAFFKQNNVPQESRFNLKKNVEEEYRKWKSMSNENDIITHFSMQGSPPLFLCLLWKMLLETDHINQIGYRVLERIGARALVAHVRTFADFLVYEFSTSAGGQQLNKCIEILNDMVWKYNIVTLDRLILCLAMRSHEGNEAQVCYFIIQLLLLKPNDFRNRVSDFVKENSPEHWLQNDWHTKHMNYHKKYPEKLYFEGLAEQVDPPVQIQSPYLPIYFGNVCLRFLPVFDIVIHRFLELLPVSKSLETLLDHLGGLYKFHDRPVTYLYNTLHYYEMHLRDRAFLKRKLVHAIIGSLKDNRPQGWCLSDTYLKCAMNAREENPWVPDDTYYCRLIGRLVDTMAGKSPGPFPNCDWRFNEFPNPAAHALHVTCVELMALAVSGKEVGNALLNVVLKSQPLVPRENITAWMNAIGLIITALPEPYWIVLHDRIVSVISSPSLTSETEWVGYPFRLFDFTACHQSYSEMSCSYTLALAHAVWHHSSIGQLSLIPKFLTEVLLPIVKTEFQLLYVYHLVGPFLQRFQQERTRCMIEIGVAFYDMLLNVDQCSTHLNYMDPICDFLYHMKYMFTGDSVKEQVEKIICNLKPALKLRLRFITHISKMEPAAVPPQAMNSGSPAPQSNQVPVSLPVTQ
Description: as §1
To confirm the interaction of wrenchnolol with Sur-2 in a cellular context, a biotin conjugate of wrenchnolol (8) was synthesized (Scheme 1) and incubated with cell nuclear extracts. The bound proteins were purified through an avidin affinity column, separated on an SDS-PAGE gel, and analyzed by western blots with a Sur-2 antibody. […] One of the silver-stained bands matched the western-blotted band of Sur-2, while the identities of the other bands remained unknown. Sur-2 (also called DRIP130 or CRSP130) is a subunit of the human mediator complexes. The additional bands may include those of the other subunits copurified with Sur-2.

MCF-7 Her18 = assay: Cell death in MCF7 cells stably transfected with the Her2 gene; type: cell-based, human; details: ectopic Her2 on a heterologous promoter
Excerpt: In contrast to the Her2-overexpressing cells, MDA-MB-468, a breast cancer cell line with no detectable levels of Her2, was resistant to TAT-ESX129-145 (FIGS. 5A and 5B). […] The effects of TAT-ESX129-145 on an MCF7 cell line stably transfected with the Her2 gene were examined.

Cc1ccc(S(=O)(=O)n2ccc3c(OCC(O)CN(CCCCCN)C(=O)N4CCC(C5CCN(C(=O)C67CC8CC(CC(C8)C6)C7)CC5)CC4)cccc32)cc1 (stereo not drawn) [Compound 7b, Wrenchnolol]
IC50 ([1]; 48 hrs incubation, WST-1): 6.9 µM
ability to kill SK-BR3 cells (biological activity, in words) ([1]; compared with adamanolol): no less active than adamanolol
IC50 (ESX-Sur-2 interaction; FITC-ESX129-145 (152 nM), GST-Sur2352-625 (212 nM)): 10 ± 1.5 µM
inhibition of the ESX-Sur-2 interaction in vitro (in words) (ESX-Sur-2 interaction; in vitro fluorescence assay): more strongly than adamanolol
Kd of the wrenchnolol-Sur-2 interaction (Sur-2 (GST-Sur2352-625)): low μM range
solubility in neutral aqueous solution [2]: ~1000 µM
ability of the ESX activation domain to activate the reporter gene (ESX activation domain): impaired; also recorded: selectively impairs
effect on the VP16 activation domain (VP16 activation domain): much milder effects
effect on the NF-κB p65 activation domain [3]: much milder effects
expression of Her2 protein (Her2): reduces; also recorded: inhibition of Her2 protein expression

O=C(O)CCCC[C@@H]1SC[C@@H]2NC(=O)N[C@@H]21 [Compound 13]
retention of Sur-2 protein on the affinity column (Sur-2): no Sur-2 protein was detected

ESX129-145: 17-aa segment of the ESX activation domain (TSSSSDELSWIIELLEK; UniProt P78545 129-145, looked up, fragment)
peptide-mediated cell death in Her2-transfected MCF7 cells (MCF-7 Her18): resistant
